Data from the supplement of paper PMC7341893.
± gives the standard deviation of the averaged measurements.

Columns and labels:
Test in all cases: growth (OD600) normalised to reference wells; higher = more growth / less inhibition
[1] = test system: GPI15_HIP
Experimental: (§1)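 S. cerevisiae strains (wild type, SPT14 point-mutant knock-ins, HIP heterozygous and HOP homozygous deletion strains) were grown in rich medium in 96-well plates with 12-point serial dilutions of jawsamycin or clotrimazole (DMSO normalised to 2%). Growth was read as OD600 and normalised within each dilution series (NormOD, % growth). Wells set exactly to 100 are normalisation references and are left out.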

[2] = test system: GPI1_HIP
Experimental: as §1

[3] = test system: GPI2_HIP
Experimental: as §1

[4] = test system: HAC1_HOP
Experimental: as §1

[5] = test system: HO_HIP
Experimental: as §1

[6] = test system: HO_HOP
Experimental: as §1

[7] = test system: IRE1_HOP
Experimental: as §1

[8] = test system: JIP3_HOP
Experimental: as §1

[9] = test system: MID2_HOP
Experimental: as §1

[10] = test system: MUD2_HOP
Experimental: as §1

[11] = test system: RLM1_HOP
Experimental: as §1

[12] = test system: SPT14(H106Y)
Experimental: as §1

[13] = test system: SPT14(T114A)
Experimental: as §1

[14] = test system: SPT14(V76F)
Experimental: as §1

[15] = test system: SPT14(WT)
Experimental: as §1

[16] = test system: SPT14_HIP
Experimental: as §1

C[C@@H]1C[C@H]1/C=C/[C@@H]1C[C@H]1[C@@H]1C[C@H]1[C@@H]1C[C@H]1[C@@H]1C[C@H]1/C=C/C=C/C(=O)NC[C@H]1O[C@@H](N2CCC(=O)NC2=O)[C@H](O)[C@@H]1O [Jawsamycin]
Settings | growth [%]
[1], 0.125900179 µM | 96 ± 4.2
[1], 0.26439 µM | 83.9 ± 4.3
[1], 0.55522 µM | 14.5 ± 1.1
[1], 1.16596 µM | 0.707 ± 1
[1], 2.44852 µM | -0.181 ± 0.52
[1], 5.14189 µM | -0.594 ± 0.33
[1], 10.79796998 µM | -0.329 ± 0.29
[1], 22.6757 µM | -0.355 ± 0.18
[1], 47.619 µM | 2.02 ± 0.8
[1], 100 µM | 3.35 ± 1
[2], 0.125900179 µM | 95.1 ± 5
[2], 0.26439 µM | 65.4 ± 2
[2], 0.55522 µM | 3.38 ± 0.54
[2], 1.16596 µM | 0.172 ± 0.55
[2], 2.44852 µM | -0.0309 ± 0.13
[2], 5.14189 µM | 0.123 ± 0.43
[2], 10.79796998 µM | -0.0696 ± 0.33
[2], 22.6757 µM | -0.0919 ± 0.24
[2], 47.619 µM | 0.953 ± 0.27
[2], 100 µM | 4.06 ± 0.43
[3], 0.125900179 µM | 102 ± 12
[3], 0.26439 µM | 78.2 ± 6
[3], 0.55522 µM | 12.1 ± 12
[3], 1.16596 µM | 0.957 ± 1.3
[3], 2.44852 µM | -0.153 ± 0.52
[3], 5.14189 µM | -0.208 ± 0.26
[3], 10.79796998 µM | -0.242 ± 0.21
[3], 22.6757 µM | 0.183 ± 0.11
[3], 47.619 µM | 1.43 ± 0.45
[3], 100 µM | 3.73 ± 0.85
[4], 0.12590018 µM | 72.1 ± 4.1
[4], 0.26439 µM | 23.7 ± 11
[4], 0.55522 µM | 3.92 ± 1.4
[4], 1.16596156 µM | 2.26 ± 2.9
[4], 2.44852 µM | 0.418 ± 0.45
[4], 5.14189 µM | 0.344 ± 0.077
[4], 10.798 µM | 1.36 ± 0.26
[5], 0.125900179 µM | 100.4 ± 0.2
[5], 0.26439 µM | 96.5 ± 10
[5], 0.55522 µM | 29.9
[5], 1.16596 µM | 5.52 ± 5.4
[5], 2.44852 µM | 1.29 ± 1.6
[5], 5.14189 µM | 0.138 ± 0.75
[5], 10.79796998 µM | -0.0442 ± 0.35
[5], 22.6757 µM | 0.182 ± 0.18
[5], 47.619 µM | 5.56 ± 1.6
[5], 100 µM | 11.6 ± 7.3
[6], 0.12590018 µM | 97 ± 3.7
[6], 0.26439 µM | 84 ± 8.2
[6], 0.55522 µM | 56 ± 15
[6], 1.16596156 µM | 15.1 ± 4.4
[6], 2.44852 µM | 4.54 ± 0.77
[6], 5.14189 µM | 1.38 ± 0.34
[6], 10.798 µM | 8.54 ± 3.9
[7], 0.12590018 µM | 70.1 ± 3.1
[7], 0.26439 µM | 14.2 ± 8.8
[7], 0.55522 µM | 2.66 ± 1.7
[7], 1.16596156 µM | -0.118 ± 0.44
[7], 2.44852 µM | -0.241 ± 0.45
[7], 5.14189 µM | -0.264 ± 0.47
[7], 10.798 µM | 0.8 ± 0.17
[8], 0.12590018 µM | 64.5 ± 38
[8], 0.26439 µM | -0.444 ± 0.1
[8], 0.55522 µM | -0.584 ± 0.029
[8], 1.16596156 µM | -0.756 ± 0.065
[8], 2.44852 µM | -0.689 ± 0.054
[8], 5.14189 µM | -0.655 ± 0.015
[8], 10.798 µM | 0.0162 ± 0.019
[9], 0.12590018 µM | 89.4 ± 4
[9], 0.26439 µM | 0.809 ± 2.5
[9], 0.55522 µM | -0.646 ± 0.35
[9], 1.16596156 µM | -0.903 ± 0.097
[9], 2.44852 µM | -0.918 ± 0.13
[9], 5.14189 µM | -0.848 ± 0.081
[9], 10.798 µM | -0.546 ± 0.14
[10], 0.12590018 µM | 33.2 ± 14
[10], 0.26439 µM | 0.873 ± 1.4
[10], 0.55522 µM | -1.12 ± 0.056
[10], 1.16596156 µM | -1.19 ± 0.32
[10], 2.44852 µM | -0.498 ± 1.1
[10], 5.14189 µM | -0.906 ± 0.31
[10], 10.798 µM | -0.454 ± 0.53
[11], 0.12590018 µM | 88 ± 7.7
[11], 0.26439 µM | 2.22 ± 3
[11], 0.55522 µM | -0.308 ± 0.17
[11], 1.16596156 µM | -0.482 ± 0.12
[11], 2.44852 µM | -0.568 ± 0.1
[11], 5.14189 µM | -0.545 ± 0.051
[11], 10.798 µM | -0.0157 ± 0.11
[12], 0.0599525 µM | 99.9 ± 7.8
[12], 0.125900179 µM | 99.6 ± 6.1
[12], 0.26439 µM | 96 ± 2.1
[12], 0.55522 µM | 91.6 ± 4.1
[12], 1.16596 µM | 65.8 ± 17
[12], 2.44852 µM | 1.98 ± 7.4
[12], 5.14189 µM | -4.83 ± 0.1
[12], 10.79796998 µM | -5.01 ± 0.39
[12], 22.6757 µM | -5 ± 0.36
[12], 47.619 µM | -2.96 ± 0.32
[12], 100 µM | 0.649 ± 1.2
[13], 0.0599525 µM | 96.9 ± 3.4
[13], 0.125900179 µM | 97.4 ± 2.2
[13], 0.26439 µM | 92.3 ± 1.1
[13], 0.55522 µM | 86.4 ± 6.1
[13], 1.16596 µM | 61 ± 6.8
[13], 2.44852 µM | -0.886 ± 0.7
[13], 5.14189 µM | -4.03 ± 0.75
[13], 10.79796998 µM | -3.95 ± 0.067
[13], 22.6757 µM | -3.63 ± 0.075
[13], 47.619 µM | -2.26 ± 0.22
[13], 100 µM | 0.0855 ± 0.21
[14], 0.1259 µM | 101.9 ± 0.58
[14], 0.26439 µM | 103 ± 3.4
[14], 0.55522 µM | 104 ± 4.9
[14], 1.16596 µM | 96.4 ± 2.8
[14], 2.44852 µM | 100 ± 9.3
[14], 5.14189 µM | 99 ± 1.6
[14], 10.798 µM | 102 ± 3.1
[14], 22.6757 µM | 102 ± 4
[14], 100 µM | 74.6 ± 10
[15], 0.0599525 µM | 80.5 ± 8.5
[15], 0.125900179 µM | 17.9 ± 28
[15], 0.26439 µM | -3.32 ± 2.1
[15], 0.55522 µM | -3.82 ± 2.3
[15], 1.16596 µM | -3.97 ± 2.3
[15], 2.44852 µM | -3.91 ± 2.2
[15], 5.14189 µM | -3.92 ± 2.3
[15], 10.79796998 µM | -3.59 ± 2.6
[15], 22.6757 µM | -3.29 ± 2.7
[15], 47.619 µM | -1.96 ± 2.4
[15], 100 µM | -0.804 ± 1.2
[16], 0.125900179 µM | 108 ± 16
[16], 0.26439 µM | 89.878 ± 0.04
[16], 0.55522 µM | 21.9
[16], 1.16596 µM | 2.72 ± 2.1
[16], 2.44852 µM | 0.0973 ± 0.67
[16], 5.14189 µM | -0.496 ± 0.4
[16], 10.79796998 µM | -0.548 ± 0.2
[16], 22.6757 µM | 0.0487 ± 0.98
[16], 47.619 µM | 2.81 ± 0.48
[16], 100 µM | 5.21 ± 0.21

Clc1ccccc1C(c1ccccc1)(c1ccccc1)n1ccnc1 [Clotrimazole]
growth [%]
Settings | [1] | [2] | [3] | [5] | [12] | [13] | [14] | [15] | [16]
0.0599525 µM | – | – | – | – | 87.7 ± 6.5 | 89.1 ± 4.4 | – | 86.2 ± 5 | –
0.1259 µM | – | – | – | – | – | – | 101 ± 3.1 | – | –
0.125900179 µM | 100.7 ± 0.32 | 99.71 ± 0.51 | 101.2 ± 0.33 | 101 ± 1.2 | 60.9 ± 11 | 72 ± 5.1 | – | 69.1 ± 4.9 | 101.3 ± 0.97
0.26439 µM | 99.95 ± 0.26 | 99.45 ± 0.29 | 99.573 ± 0.072 | 98.3 ± 1 | 6.75 ± 1.9 | 33.3 ± 5.7 | 99.4 ± 2.3 | 8.87 ± 1 | 99.746 ± 0.049
0.55522 µM | 94.01 ± 0.25 | 92.9 ± 1 | 94.15 ± 0.9 | 94.61 ± 0.88 | 7.18 ± 0.99 | 13.3 ± 1.6 | 104 ± 3.8 | 9.82 ± 2 | 91.5 ± 1.1
1.16596 µM | 7.93 ± 0.35 | 10.1 ± 0.075 | 14.5 ± 5.7 | 8.24 ± 1.2 | 4.48 ± 4 | 12.5 ± 3.9 | 97.7 ± 5.1 | 6.88 ± 3.3 | 11.7 ± 2.5
2.44852 µM | 3.69 ± 0.34 | 4.4 ± 0.89 | 2.59 ± 0.9 | 1.95 ± 0.62 | 5.03 ± 1.3 | 15.9 ± 2.4 | 95.9 ± 2.8 | 6.32 ± 1.9 | 3.86 ± 1.1
5.14189 µM | 1.3 ± 0.63 | 1.82 ± 0.74 | 1.15 ± 0.38 | 0.55 ± 0.51 | 3.41 ± 0.64 | 12 ± 2.4 | 98.2 ± 2.2 | 4.16 ± 1.9 | 1.8 ± 0.16
10.79796998 µM | -0.36 ± 0.11 | 0.134 ± 0.29 | 0.0555 ± 0.12 | -0.231 ± 0.18 | 1.98 ± 0.98 | 3.16 ± 0.58 | – | 3 ± 0.5 | 0.0343 ± 0.0096
10.798 µM | – | – | – | – | – | – | 4.41 ± 1.4 | – | –
22.6757 µM | -0.813 ± 0.16 | -0.448 ± 0.11 | -0.447 ± 0.076 | -0.622 ± 0.1 | 2.09 ± 0.21 | 3.52 ± 0.83 | 0.641 ± 0.71 | 3.43 ± 0.38 | -0.803 ± 0.032
47.619 µM | -0.839 ± 0.038 | -0.6398 ± 0.0048 | -0.447 ± 0.21 | -0.564 ± 0.018 | -0.417 ± 0.078 | 0.134 ± 0.084 | -1.36 ± 0.098 | -0.421 ± 0.093 | -0.679 ± 0.11
100 µM | 0.998 ± 0.065 | 1.31 ± 0.1 | 1.041 ± 0.0034 | 1.08 ± 0.34 | -0.409 ± 0.09 | 0.19 ± 0.064 | -0.859 ± 0.094 | -0.41 ± 0.088 | 1.11 ± 0.42
